Assay results published in patent US20250002450A1, “CATIONIC STEROID COMPOUNDS, METHOD OF OBTAINING THEREOF, FORMULATIONS COMPRISING THEREOF AND THEIR USES” (UNIVERSIDADE DO PORTO, priority 2021, published 2025).
≈ marks a conversion by molar mass, not a printed value.

Legend:
C. albicans ATCC 10231 [1] = test: Mitochondrial dehydrogenases activity, MTT reduction assay; type: cell-based, Candida albicans; conditions: 8 μg/mL, 2 h
Procedure: In order to determine whether compound 1 could also affect mitochondrial function, MTT reduction assay was performed. In this assay, tetrazolium salts are reduced to purple formazan derivatives by mitochondrial dehydrogenases, which can be measured spectrophotometrically and reported to mitochondrial activity and, indirectly, to cell viability. In this assay, cells were exposed to the test compounds for 2 h ([FIG. 11]). […] An increase in reactive oxygen species (ROS) has been linked to azoles activity: even though their primary mode of action is the inhibition of ergosterol synthesis, they also induce accumulation of ROS, which enhances their antifungal activity and translates into an increase in mitochondrial activity at inhibitory concentrations. […] Mitochondrial dehydrogenase activity was evaluated by the MTT assay, as previously described, with some modifications. Cell suspensions of C. albicans ATCC 10231 were prepared in the same manner as described above and, after overnight incubation at 36° C., were centrifuged at 3500 rpm for 15 min, the supernatant was removed, and the cells were carefully resuspended in 2 mL of RPMI. Test conditions and controls were the same as described above, but the time of exposure to the test compounds was 2 h. After the exposure time, cell suspensions were centrifuged at 3500 rpm for 10 min, the supernatant was removed, and 500 μL of MTT solution (0.5 mg/mL in RPMI, at 35° C.) (Thiazolyl Blue Tetrazolium Bromide, Alfa Aesar, Ward Hill, MA, USA) were added. After a 1 h incubation at 35° C., the insoluble formazan product resulting from the conversion of MTT by mitochondrial dehydrogenases of metabolically active cells was solubilized with 300 μL of DMSO. 100 μL of each sample were transferred in duplicate to a microtiter plate and the extent of the reduction of MTT to formazan was quantified by measuring the absorbance at 570 nm. Three independent assays were performed in duplicate, and the results are expressed as percentage of MTT reduction, using the untreated cells as control.

C. albicans ATCC 10231 [2] = test: Ergosterol binding assay; type: cell-based, Candida albicans
Procedure: Ceragenins have been described to interact with the lipophilic environment of microbial membranes and ergosterol is the major sterol component of fungal plasma membrane, and the target of several antifungals. As such, in order to evaluate the ability of compound 1 to bind to membrane ergosterol of C. albicans ATCC 10231, MICs were determined in the absence and presence of exogenous ergosterol ([FIG. 10]). If the tested compound has the ability to perturb membrane integrity by binding to ergosterol, is expected that, in the presence of exogenous ergosterol, the compound binds to it, decreasing the amount of compound available to bind to membrane ergosterol, therefore increasing the MIC. Amphotericin B was used as a positive control for this assay and MICs obtained were 8 times higher in the presence of 400 μg/mL of exogenous ergosterol than in its absence (2 to 16 μg/mL, data not shown). […] The ability of compound 1 to bind to membrane ergosterol of C. albicans ATCC 10231, was evaluated by the ergosterol binding assay, as previously described. Briefly, MICs of compound 1 were determined by broth microdilution, as described above, in the absence and presence of ergosterol (Sigma-Aldrich, St. Louis, MO, USA) at a final concentration of 400 μg/mL. Ergosterol was prepared immediately before being added to the plates, by maceration and dissolution in DMSO. The formed emulsion was then homogenized, heated to increase solubility, and diluted in RPMI. Amphotericin B was used as positive control. Plates were incubated at 35° C. for 48 h and MICs were determined as described above. At least two independent assays were performed.

C. albicans ATCC 10231 [3] = test: Propidium iodide influx assay (SYTO 9/PI); type: cell-based, Candida albicans; conditions: 8 μg/mL, 5 min
Procedure: Influx of PI in C. albicans ATCC 10231 treated with compound 1 was evaluated using a commercial kit, which includes fluorescent nucleic acid stains SYTO™ 9 and PI, and measurements were conducted in a fluorescence microplate reader. […] The ability of PI to penetrate cells with damaged membranes makes it suitable for studying the effect of drugs on cell membranes.
In order to assess membrane integrity by the PI influx assay, a commercial kit was used (LIVE/DEAD® BacLight™ Bacterial Viability Kit, for microscopy & quantitative assays, Invitrogen by Thermo Fisher Scientific, Waltham, MA, USA), which includes fluorescent nucleic acid stains SYTO® 9 and PI. Briefly, C. albicans ATCC 10231 colonies from overnight cultures in SDA were suspended in sterile saline and adjusted to 0.5 McFarland. This suspension was then diluted in RPMI (1:50 followed by 1:20) to achieve a final concentration of 0.5-2.5×10^3 CFU/mL and the tubes were incubated overnight at 36° C. in a water bath with shaking. The following day, the cell suspensions were centrifuged at 3500 rpm for 15 min, the supernatant was removed, and the cells were carefully resuspended in 2 mL of 0.85% NaCl (VWR International, Radnor, PA, USA) prepared in ultrapure water. An aliquot of this suspension was then added to each tube of 0.85% NaCl alone (control) or 0.85% NaCl plus an appropriate amount of test compound, in a 1:10 proportion. […] Fluorescence intensity of the stained yeast suspensions was obtained in a microplate reader (Synergy HT, BioTek Instruments) by two consecutive measurements: with excitation wavelength 485 nm and emission wavelength 528 nm (SYTO® 9) and with excitation wavelength 485 nm and emission wavelength 590 nm (PI). Data were analyzed by subtracting background fluorescence from each sample, dividing fluorescence intensity of SYTO® 9 by fluorescence intensity of PI, and are presented as a percentage of control. […]

E. coli ATCC 25922 = test: Checkerboard synergy with erythromycin; type: cell-based, Escherichia coli; conditions: Escherichia coli
Procedure: The combined effect of compound 1 and CTX for E. coli SA/2, VAN for E. faecalis B3/101, COL for E. coli 2252, erythromycin for E. coli ATCC 25922, and OXA for S. aureus 66/1 was evaluated by the checkerboard method. […] The interaction between compound 1 and erythromycin was assessed for E. coli ATCC 25922. Gram-negative bacteria are intrinsically resistant to erythromycin, a macrolide that inhibits protein synthesis, and cannot penetrate the outer membrane of Gram-negative bacteria, which is impermeable to hydrophobic antibiotics. Ascertain ceragenins have been previously described to be able to enhance the efficacy of such antibiotics, this possibility was investigated for compound 1 and a FICI of 0.6 was obtained.

For C[C@@H](c1ncncc1F)[C@](O)(Cn1cncn1)c1ccc(F)cc1F [VRC, voriconazole], the “mitochondrial activity (MTT reduction) vs untreated control” value (C. albicans ATCC 10231 [1]) was “identical effect”.
C[C@@H]1[C@H](O)[C@@H](C)/C=C/C=C/C=C/C=C/C=C/C=C/C=C/[C@H](O[C@@H]2O[C@H](C)[C@@H](O)[C@H](N)[C@@H]2O)C[C@@H]2O[C@](O)(C[C@@H](O)C[C@@H](O)[C@H](O)CC[C@@H](O)C[C@@H](O)CC(=O)O[C@H]1C)C[C@H](O)[C@H]2C(=O)O [Amphotericin B] was tested, and the “increase of MIC in the presence of exogenous ergosterol” value (C. albicans ATCC 10231 [2]; 400 μg/mL ergosterol vs absence) was 8 times, the MIC (C. albicans ATCC 10231 [2]; absence of exogenous ergosterol) was 2 µg/mL (≈ 2.16 µM) and the MIC (C. albicans ATCC 10231 [2]; presence of 400 μg/mL of exogenous ergosterol) was 16 µg/mL. The “reduction of SYTO 9/PI ratio vs untreated control” value (C. albicans ATCC 10231 [3]) was “statistically significant” and the “mitochondrial activity (MTT reduction) vs untreated control” value (C. albicans ATCC 10231 [1]) was “significantly reduced”.
CC[C@H]1OC(=O)[C@H](C)[C@@H](O[C@H]2C[C@@](C)(OC)[C@@H](O)[C@H](C)O2)[C@H](C)[C@@H](O[C@@H]2O[C@H](C)C[C@H](N(C)C)[C@H]2O)[C@](C)(O)C[C@@H](C)C(=O)[C@H](C)[C@@H](O)[C@]1(C)O [erythromycin, reference compound] gave an MIC (E. coli ATCC 25922; ATCC25922, E. coli ATCC 25922, erythromycin alone) of 16 µg/mL and an MIC (E. coli ATCC 25922; ATCC25922, E. coli ATCC 25922, with 16 μg/mL of compound 1 (½×MIC)) of 0.125 µg/mL.
